# Residues, ends and D or L forms follow the SMILES beside them.
# Experiments:
# [1] = tested on: capsaicin-evoked nocifensive behavior; assay: Capsaicin eye-wipe test; assay type: in vivo, rat; conditions: peptide alone
# Procedure: Referring now to FIG. 16. TAT-CBD3 reduces acute, inflammatory and neuropathic pain. (FIG. 16A) Time course of number of flinches following subcutaneous (dorsal surface of paw) injection of formalin (2.5%; 50 μl saline) in animals pretreated with peptides (3-100 μM; 20 μl dorsal surface of paw) 30 min before formalin (n=4-10). (FIG. 16B) The effect of peptides on number of flinches on formalin-induced phase 1 (0-10 min) and phase 2 (15-60 min). *, p<0.05 versus formalin-injected animals. (FIG. 16C) Formalin induces paw edema. Paw thickness was measured 1 h after injection of saline, formalin, and formalin+peptides (100 μM). *, p<0.05 versus saline-injected animals. (FIG. 16D) Pretreatment with TAT-CBD3 attenuates capsaicin-evoked nocifensive behavior. […]
# Eye-wipe test. […] TAT CBD3 peptide, TAT control peptide or vehicle was pipetted directly into the right eye in a volume of 40 μl and the resulting nocifensive behavior was measured. […] This nocifensive behavior was recorded for five minutes and followed by capsaicin (3 μM in 40 μl saline) application into the pretreated eye. Nocifensive behavior was again quantified for 5 minutes following capsaicin application, as described previously. […] Significant differences between groups were assessed by two-way analysis of variance with Bonferroni post-tests. Data were analyzed with GraphPad Prism 4.0 (GraphPad, San Diego, Calif., USA). […]
# [2] = tested on: anxiety-associated behavior; assay: Light-Dark Box test (LDBT); assay type: in vivo, C57BL6 mice; conditions: for Light-Dark Box: Dark box latency to exit / Light-Dark Box: Light box entries: C57BL6 mice, 1 h after injection, 5 min test
# Procedure: The light-dark box test and the elevated plus maze were used as measures of anxiety-associated behaviors. The tail suspension test was performed to evaluate despair- and depression-associated behavior. Anxiety-behavior testing Anxiety occurs when there is conflict between risk and reward. The Light-Dark Box test (LDBT) and the elevated plus maze (EPM) are accepted tests of anxiety-associated behavior that assess the conflict mice have against hiding in enclosed dark areas (i.e., dark box or closed arm) and their tendency to explore novel environments (i.e., white box or open arm). Lalonde, R. & Strazielle, C. […] J. Neurosci. Methods. 171, 48-52 (2008). These tests are also sensitive to anxiolytic drug treatments. Light-Dark Box test as a measure of anxiety-associated behavior. For the light-dark box test (LDBT), there were two adjoined light and dark compartments boxes with a 7 cm square opening to allow mice to move between them. The black box was covered (20 cm×40 cm×30 cm height) and the white box (20 cm×40 cm×30 cm height) was open and illuminated (40 W). Each mouse was placed into the white compartment and the white compartment was video recorded for later analyses using ANY-maze software (version 4.75, Stoelting, Wood Dale, Ill.) which is a video tracking system designed to automate testing in behavioral experiments. The main parameters were duration of time spent in the light box; the latency to enter the dark box; and the number of transitions between the light and dark box.
structure (smiles),measurement,setting,value
CC(C)C[C@H](NC(=O)CNC(=O)[C@H](CCCNC(=N)N)NC(=O)[C@@H]1CCCN1C(=O)[C@@H](NC(=O)CNC(=O)[C@H](CCCNC(=N)N)NC(=O)[C@H](CC(C)C)NC(=O)[C@H](CCC(=O)O)NC(=O)[C@H](C)NC(=O)[C@H](CC(C)C)NC(=O)[C@H](CCCNC(=N)N)NC(=O)[C@H](CO)NC(=O)[C@H](CCCNC(=N)N)NC(=O)[C@H](C)NC(=O)[C@H](CCCNC(=N)N)NC(=O)[C@H](CCCNC(=N)N)NC(=O)[C@H](CCCNC(=N)N)NC(=O)[C@H](CCC(N)=O)NC(=O)[C@H](CCCNC(=N)N)NC(=O)[C@H](CCCNC(=N)N)NC(=O)[C@H](CCCCN)NC(=O)[C@H](CCCCN)NC(=O)[C@H](CCCNC(=N)N)NC(=O)CNC(=O)[C@@H](N)Cc1ccc(O)cc1)C(C)C)C(=O)O [TAT-CBD3] (H-YGRKKRRQRRRARSRLAELRGVPRGL-OH; N-terminus and C-terminus assumed),nocifensive behavior on application alone to the cornea,[1],did not induce nocifensive behavior
same,LDBT number of transitions between the light and dark box,"[2]; 1 mg/kg, compared to TAT-Scramble",increased
same,Light-Dark Box: Dark box latency to exit,[2]; 0.1 mg/kg i.p.,66.0 ± 17.3 s
same,Light-Dark Box: Light box entries,[2]; 0.1 mg/kg i.p.,10.6 ± 1.2
same,Light-Dark Box: Dark box latency to exit,[2]; 1 mg/kg i.p.,36.9 ± 5.8 s
same,Light-Dark Box: Light box entries,[2]; 1 mg/kg i.p.,13.5 ± 1.1
same,Light-Dark Box: Dark box latency to exit,[2]; 10 mg/kg i.p.,49.5 ± 9.6 s
same,Light-Dark Box: Light box entries,[2]; 10 mg/kg i.p.,11.5 ± 1.2

# From US9018173B2, “Materials and methods for suppressing inflammatory and neuropathic pain” (Indiana University Research and Technology Corp., priority 2010, dated 2015)
